In patent publication US20250388604A1, “Compounds and Their Use as PDE4 Activators” (Mironid Limited, priority 2022, published 2025):

test system: m-IMCD3 cells; test: Inhibition of PGE2-stimulated in vitro cyst formation in m-IMCD3 cells; type: cell-based, mouse; settings: Mus musculus, mIMCD3, 144 h, 3 μM; mean cyst area, 100% for (DMSO + PGE2) and 0% for DMSO control; 6 days of culture; read-out: % Cyst area after incubation with 3 μM test compound
Method: HEK 293 and MDCK cells (Public Health England, Cell Culture Collections) were maintained in Dulbecco's Modified Eagle's Medium (DMEM) supplemented with 10% (v/v) fetal bovine serum (FBS) (Seralab), 2 mM L-glutamine and 100 U/mL penicillin streptomycin cocktail (ThermoFisher); termed complete media. Clonal HEK 293 cell lines were maintained in complete media supplemented with 0.6 mg/ml G418 (Enzo Life Sciences). Mouse inner medullary collecting duct (m-IMCD3) cells [American Type Culture Collection (ATCC)] were maintained in media consisting of DMEM/Hams F-12 50/50 Mix (DMEM F12; Corning) supplemented with penicillin streptomycin cocktail (100 U/mL) and FBS (10% v/v) (DMEM F12-10% FBS).
The mouse Inner Medullary Collecting Duct cell line (m-IMCD3) spontaneously forms cystic spheroids in 3D culture with a Type 1 collagen/Matrigel extracellular matrix. This process can be stimulated with agents which raise intracellular cAMP and is used as an in vitro model for the formation of cystic structures in the kidneys of patients with ADPKD.
Rat Collagen I (Fisher Scientific) is prepared on ice by neutralising with 1M NaOH and diluting with a 2× volume of DMEM/F12+10% FBS. This is mixed 1:1.1 with ice cold Matrigel (Corning) for coating plates (coating mix), and 1:0.93 with Matrigel for cell plating (plating mix).
The assay is conducted in the wells of a 96-well plate culture dish using a total volume of 130 μL of collagen/Matrigel/DMEM F12-10% FBS suspension in growth media for each matrix plug per individual well. Initially, 30 μL of collagen/Matrigel/DMEM F12-10% FBS (coating mix) is added into the well of a 96 well plate and the collagen is set to a gel by incubating at 37° C. for at least 15 minutes. A second layer of 100 μL collagen/Matrigel suspension (plating mix) containing m-IMCD3 cells (2.75×10^6 m-IMCD3 cells per 96-well plate) is layered over the coating mix and the collagen/Matrigel/cell mix again set to a gel by incubating at 37° C. Cell cultures are maintained at 37° C. in an atmosphere of 5% CO2, 95% air.
Between 18 and 24 h after plating, test compound(s) as DMSO stock solutions [0.1% (v/v) final DMSO concentration] and PGE2 (100 nM final concentration) in DMEM F12-10% FBS are added in quadruplicate wells per condition. Media, together with the test compound and PGE2 are replenished after 2 or 3 days. After 6 days of culture z stack images of the wells are captured using the Nikon Eclipse Ti2-E microscope. Nikon General Analysis software is used to measure the following parameters in each well: the mean cyst area, the number of cysts, and the total cyst area.
PDE4 long form activators inhibited in vitro cyst formation in m-IMCD3 cells. Data are shown in Table 4 as mean cyst area (%), compared to 100% for (DMSO+PGE2) and 0% for DMSO control.

Q: For O=C(C1CCc2ccccc2O1)N1CCc2nc(N3C4CCC3CNC4)sc2C1 (stereo not drawn) [Example 181, (2-(3,8-diazabicyclo[3.2.1]octan-8-yl)-6,7-dihydrothiazolo[5,4-c]pyridin-5(4H)-yl)(chroman-2-yl)methanone], which activity at 3 µM is on record?
A: The activity at 3 µM was 5%.

Q: With CCN1CC2CCC(C1)N2c1nc2c(s1)CN(S(=O)(=O)Cc1ccccc1)CC2 [Example 289, 5-(benzylsulfonyl)-2-(3-ethyl-3,8-diazabicyclo[3.2.1]octan-8-yl)-4,5,6,7-tetrahydrothiazolo[5,4-c]pyridine] as the compound, how does the activity at 3 µM read?
A: The activity at 3 µM was -7%.

Q: For CC(C)Oc1ccccc1C(=O)N1CCc2nc(N3C4CCC3CNC4)sc2C1 [Example 211, (2-(3,8-diazabicyclo[3.2.1]octan-8-yl)-6,7-dihydrothiazolo[5,4-c]pyridin-5(4H)-yl)(2-isopropoxyphenyl)methanone], which activity at 3 µM is on record?
A: The activity at 3 µM was 40%.

Q: For O=C(C1Cc2ccccc2O1)N1CCc2nc(N3C4CCC3CNC4)sc2C1 (stereo not drawn) [Example 179, (2-(3,8-diazabicyclo[3.2.1]octan-8-yl)-6,7-dihydrothiazolo[5,4-c]pyridin-5(4H)-yl)(2,3-dihydrobenzofuran-2-yl)methanone], which activity at 3 µM is on record?
A: The activity at 3 µM was 2%.

Q: Which activity at 3 µM does the source give for O=C(c1cc2ccccc2[nH]1)N1CCc2nc(N3C4CCC3CNC4)sc2C1 [Example 188, (2-(3,8-diazabicyclo[3.2.1]octan-8-yl)-6,7-dihydrothiazolo[5,4-c]pyridin-5(4H)-yl)(1H-indol-2-yl)methanone] here?
A: Its activity at 3 µM is 3%.

Q: How did the activity at 3 µM turn out when O=C(C1COc2ccccc2O1)N1CCc2nc(N3C4CCC3CNC4)sc2C1 (stereo not drawn) [Example 180, (2-(3,8-diazabicyclo[3.2.1]octan-8-yl)-6,7-dihydrothiazolo[5,4-c]pyridin-5(4H)-yl)(2,3-dihydrobenzo[b][1,4]dioxin-2-yl)methanone] was run?
A: The activity at 3 µM was 2%.

Q: Which activity at 3 µM does the source give for COc1cccc(C#N)c1OCC(=O)N1CCc2nc(N3C4CCC3CNC4)sc2C1 [Example 168, 2-(2-(2-(3,8-diazabicyclo[3.2.1]octan-8-yl)-6,7-dihydrothiazolo[5,4-c]pyridin-5(4H)-yl)-2-oxoethoxy)-3-methoxybenzonitrile] here?
A: The activity at 3 µM was -3%.

Q: O=C(c1cccc(C(F)F)c1)N1CCc2nc(N3C4CCC3CNC4)sc2C1 [Example 199, (2-(3,8-diazabicyclo[3.2.1]octan-8-yl)-6,7-dihydrothiazolo[5,4-c]pyridin-5(4H)-yl)(3-(difluoromethyl)phenyl)methanone] was tested. Which activity at 3 µM did it give?
A: The activity at 3 µM was 3%.

Q: For CC1(C)CN(C(=O)c2ccc(F)nc2)Cc2sc(N3C4CCC3CNC4)nc21 [Example 264, (2-(3,8-diazabicyclo[3.2.1]octan-8-yl)-7,7-dimethyl-6,7-dihydrothiazolo[5,4-c]pyridin-5(4H)-yl)(6-fluoropyridin-3-yl)methanone], which activity at 3 µM is on record?
A: Its activity at 3 µM is -1%.

Q: With O=C(c1ccc(F)cc1)N1CCc2nc(N3C4CCC3CNC4)sc2C1 [Example 198, (2-(3,8-diazabicyclo[3.2.1]octan-8-yl)-6,7-dihydrothiazolo[5,4-c]pyridin-5(4H)-yl)(4-fluorophenyl)methanone] as the compound, how does the activity at 3 µM read?
A: Its activity at 3 µM is -5%.

Q: Which activity at 3 µM does the source give for O=C(c1ccc(OC(F)F)cc1)N1CCc2nc(N3C4CCC3CNC4)sc2C1 [Example 204, (2-(3,8-diazabicyclo[3.2.1]octan-8-yl)-6,7-dihydrothiazolo[5,4-c]pyridin-5(4H)-yl)(4-(difluoromethoxy)phenyl)methanone] here?
A: The activity at 3 µM was 4%.

Q: With O=C(c1ccccc1OC(F)F)N1CCc2nc(N3C4CCC3CNC4)sc2C1 [Example 203, (2-(3,8-diazabicyclo[3.2.1]octan-8-yl)-6,7-dihydrothiazolo[5,4-c]pyridin-5(4H)-yl)(2-(difluoromethoxy)phenyl)methanone] as the compound, how does the activity at 3 µM read?
A: The activity at 3 µM was -1%.

Q: How did the activity at 3 µM turn out when O=C(CC1CCCC1)N1CCc2nc(N3CC4CCC3CN4)sc2C1 (stereo not drawn) [Example 278, 1-(2-(2,5-diazabicyclo[2.2.2]octan-2-yl)-6,7-dihydrothiazolo[5,4-c]pyridin-5(4H)-yl)-2-cyclopentylethan-1-one] was run?
A: Its activity at 3 µM is 2%.

Q: For O=C(c1ccc(C2CC2)cc1)N1CCc2nc(N3C4CCC3CNC4)sc2C1 [Example 228, (2-(3,8-diazabicyclo[3.2.1]octan-8-yl)-6,7-dihydrothiazolo[5,4-c]pyridin-5(4H)-yl)(4-cyclopropylphenyl)methanone], which activity at 3 µM is on record?
A: The activity at 3 µM was -6%.

Q: Cc1ccc(C(=O)N2CCc3nc(N4C5CCC4CNC5)sc3C2)c(C#N)c1 [Example 238, 2-(2-(3,8-diazabicyclo[3.2.1]octan-8-yl)-4,5,6,7-tetrahydrothiazolo[5,4-c]pyridine-5-carbonyl)-5-methylbenzonitrile] was tested. Which activity at 3 µM did it give?
A: Its activity at 3 µM is 5%.

Q: Which activity at 3 µM does the source give for N#Cc1ccccc1OCC(=O)N1CCc2nc(N3C4CCC3CNC4)sc2C1 [Example 167, 2-(2-(2-(3,8-diazabicyclo[3.2.1]octan-8-yl)-6,7-dihydrothiazolo[5,4-c]pyridin-5(4H)-yl)-2-oxoethoxy)benzonitrile] here?
A: The activity at 3 µM was 19%.

same assay, conditions: Mus musculus, mIMCD3, 144 h, 10 μM; mean cyst area, 100% for (DMSO + PGE2) and 0% for DMSO control; 6 days of culture; read-out: % Cyst area after incubation with 10 μM test compound

Q: O=C(COc1ccc(F)cc1)N1CCc2nc(N3CCNCC3)sc2C1 [Example 110, 2-(4-fluorophenoxy)-1-(2-(piperazin-1-yl)-6,7-dihydrothiazolo[5,4-c]pyridin-5(4H)-yl)ethan-1-one] was tested. Which activity at 10 µM did it give?
A: The activity at 10 µM was -5%.

Q: For O=C(N1CCCC1)N1CCc2nc(N3C4CCC3CNC4)sc2C1 [Example 60, (2-(3,8-diazabicyclo[3.2.1]octan-8-yl)-6,7-dihydrothiazolo[5,4-c]pyridin-5(4H)-yl)(pyrrolidin-1-yl)methanone], which activity at 10 µM is on record?
A: Its activity at 10 µM is 2%.

Q: For O=C(C(O)c1ccc(F)cc1)N1CCc2nc(N3C4CCC3CNC4)sc2C1 (stereo not drawn) [Example 132, 1-(2-(3,8-diazabicyclo[3.2.1]octan-8-yl)-6,7-dihydrothiazolo[5,4-c]pyridin-5(4H)-yl)-2-(4-fluorophenyl)-2-hydroxyethan-1-one], which activity at 10 µM is on record?
A: Its activity at 10 µM is -6%.

Q: Which activity at 10 µM does the source give for O=C(Cc1ccc(F)cc1)N1CCc2nc(N3C4CCC3CNC4)sc2C1 [Example 25, 1-(2-(3,8-diazabicyclo[3.2.1]octan-8-yl)-6,7-dihydrothiazolo[5,4-c]pyridin-5(4H)-yl)-2-(4-fluorophenyl)ethan-1-one] here?
A: The activity at 10 µM was 6%.

Q: Which activity at 10 µM does the source give for CC(C)(C(=O)N1CCc2nc(N3C4CCC3CNC4)sc2C1)C1CCCC1 [Example 146, 1-(2-(3,8-diazabicyclo[3.2.1]octan-8-yl)-6,7-dihydrothiazolo[5,4-c]pyridin-5(4H)-yl)-2-cyclopentyl-2-methylpropan-1-one] here?
A: Its activity at 10 µM is 16%.

Q: For COC(C(=O)N1CCc2nc(N3C4CCC3CNC4)sc2C1)c1ccc(F)cc1 (stereo not drawn) [Example 131, 1-(2-(3,8-diazabicyclo[3.2.1]octan-8-yl)-6,7-dihydrothiazolo[5,4-c]pyridin-5(4H)-yl)-2-(4-fluorophenyl)-2-methoxyethan-1-one], which activity at 10 µM is on record?
A: The activity at 10 µM was -9%.

Q: How did the activity at 10 µM turn out when COc1cc(F)ccc1CC(=O)N1CCc2nc(N3C4CCC3CNC4)sc2C1 [Example 140, 1-(2-(3,8-diazabicyclo[3.2.1]octan-8-yl)-6,7-dihydrothiazolo[5,4-c]pyridin-5(4H)-yl)-2-(4-fluoro-2-methoxyphenyl)ethan-1-one] was run?
A: The activity at 10 µM was 0%.

Q: CN1CC2CCC(C1)N2c1nc2c(s1)CN(C(=O)CC1CCCC1)C2 [Example 83, 2-cyclopentyl-1-(2-(3-methyl-3,8-diazabicyclo[3.2.1]octan-8-yl)-4,6-dihydro-5H-pyrrolo[3,4-d]thiazol-5-yl)ethan-1-one] was tested. Which activity at 10 µM did it give?
A: The activity at 10 µM was 4%.

Q: Which activity at 10 µM does the source give for CC(C)(C(=O)N1CCc2nc(N3C4CCC3CNC4)sc2C1)C(F)(F)F [Example 32, 1-(2-(3,8-diazabicyclo[3.2.1]octan-8-yl)-6,7-dihydrothiazolo[5,4-c]pyridin-5(4H)-yl)-3,3,3-trifluoro-2,2-dimethylpropan-1-one] here?
A: Its activity at 10 µM is 1%.

Q: With CC(C)NC(=O)N1CCc2nc(N3C4CCC3CNC4)sc2C1 [Example 51, 2-(3,8-diazabicyclo[3.2.1]octan-8-yl)-N-isopropyl-6,7-dihydrothiazolo[5,4-c]pyridine-5(4H)-carboxamide] as the compound, how does the activity at 10 µM read?
A: The activity at 10 µM was 9%.

Q: With O=C(N1CCc2nc(N3C4CCC3CNC4)sc2C1)C(F)(F)C1CCCC1 [Example 24, 1-(2-(3,8-diazabicyclo[3.2.1]octan-8-yl)-6,7-dihydrothiazolo[5,4-c]pyridin-5(4H)-yl)-2-cyclopentyl-2,2-difluoroethan-1-one] as the compound, how does the activity at 10 µM read?
A: Its activity at 10 µM is 0%.
